The record followed here is patent US12351583B2, “Triazolopyrimidines based on thymine nucleobase and methods for producing them” (TERA STONE CO., LTD, priority 2019, dated 2025).

pIC50: −log10 of the molar value. Where two headings read alike, the source gives them in different places.

The test system of data set [1] is CCRF-HSB-2 cells (human acute lymphoblastic leukemia). In words: MTT cell proliferation inhibition assay, CCRF-HSB-2 cells. The following applies: for pIC50: MTT assay, cultured 3 days, probit analysis, read-out: Inhibitory concentration against tumor cell lines in vitro IC50, CCRF-HSB-2; for cell proliferation inhibitory activity compared with 5-FU, CCRF-HSB-2 cells: comparison of IC50 with control drug 5-FU. In kind it is cell-based. As to the method:
(§1) Regarding the synthesized triazolopyrimidine compounds, their cell proliferation inhibitory activities, as an index of antitumor acttivity, were examined. The test was performed by MTT assay (T. Mosmann, J. Immunol. Methods, 65, 55 (1983); M. B. Hansen, S. E. Nielsen and K. Berg, J. Immunol. Methods, 119, 203 (1989), which are incorporated by reference in their entirety.), and the cancer cells tested were CCRF-HSB-2 cells (human acute lymphoblastic leukemia) and KB cells (human […]). Cytarabine (Ara-C, cytarabine: 4-amino-1-β-D-arabinofuranosyl-2(1H)-one) and 5-fluorouracil (5-FU, 5-fluorouracil) were used as control drugs, which are antimetabolite anticancer agents used for, for example, acute leukemia and/or gastrointestinal cancer.
(§2) Human acute lymphoblastic leukemia cells (T-cells) CCRF-HSB-2 and human nasopharyngeal carcinoma-derived KB cells were cultured in RPMI 1640 medium supplemented with 10% fetal bovine serum.
(§3) Test agents were dissolved in dimethyl sulfoxide to become a concentration of 10 mg/ml and stored at 4° C. These solutions were diluted with MEM-Hanks medium and used for the assay.
(§4) • 1. 50 μl of the agent solution or MEM-Hanks medium was pre-filled in a 96-well plate. • 2. Cells in the logarithmic growth phase were harvested, and suspension of the cells was prepared such that the cell density is 1×10^5 cells/ml (5,000 cells/50 μl/well) and the serum concentration is 20%. The suspension 50 μl was seeded to each well. The cells were cultured in a carbon dioxide incubator at 37° C. for 3 days. • 3. After completion of the culture, 10 μl of MTT solution*(5 mg/ml in PBS-) was added to each well, and the cells were further cultured at 37° C. for 4 hours in a carbon dioxide incubator. *MTT solution: 1 g of MTT (Sigma M-2128) was dissolved in 200 ml of PBS-under light shielding, and the solution was filtrated using a 0.45 μm filter, and then stored at 4° C. If insoluble components precipitated during storage, filtration was performed again. • 4. After completion of the culture, 100 μl of 0.02 N HCl/50% N,N-dimethylformamide/20% SDS was added and stirred in each well to dissolve produced formazan. Its absorbance at 570 nm (test wavelength) and 690 nm (reference wavelength) was measured by a microplate reader (Tosoh MPR4Ai) and the proliferation inhibition rate was determined by the following formula. Inhibition rate (%)=(1−Tx/Cx)×100
(§5) Tx: Absorbance of wells containing sample
(§6) Cx: Absorbance of wells containing no sample (control) • 5. Inhibitory concentration showing 50% inhibition (IC50) of samples were determined by probit analysis using a computer software. [Evaluation]
(In general: Tetrazolium dyes change colour on reduction, which living cells bring about.)

The subject of data set [2] is KB cells (human nasopharyngeal carcinoma-derived). The data set is described as follows: MTT cell proliferation inhibition assay, KB cells. Conditions: for pIC50: MTT assay, cultured 3 days, probit analysis, read-out: Inhibitory concentration against tumor cell lines in vitro IC50, KB; for cell proliferation inhibitory activity compared with 5-FU, KB cells: comparison of IC50 with control drug 5-FU. The class given is cell-based. As to the method: as §1, §2, §3, §4, §5, §6

As to `Cc1c[nH]c(=O)n2nc(-c3ccc(Cl)c(Cl)c3)nc12` [Compound 5j], the pIC50 in data set [1] is 4.82; in data set [2], 4.87.
On to `Cc1cnc(Cl)n2nc(-c3ccccc3)nc12` [Compound 6b], for which the “cell proliferation inhibitory activity compared with 5-FU, CCRF-HSB-2 cells” value in data set [1] is given as “stronger cell proliferation inhibitory activity than 5-FU”.
For `Cc1c[nH]c(=O)n2nc(-c3ccc(C(=O)O)cc3)nc12` [Compound 5n], the pIC50 in data set [1] and in data set [2] was under 4.00 in each case.
On to `O=c1[nH]cc(F)c(=O)[nH]1` [Compound 5-FU, 5-fluorouracil, reference compound], for which the pIC50 was 5.56 in data set [1] (Homo sapiens, 72 h) and 5.65 in data set [2] (Homo sapiens, 72 h).
For the compound `Cc1c[nH]c(=O)n2nc(-c3cccnc3)nc12` [Compound 5p], the pIC50 in data set [1] is 4.23; in data set [2], 4.11.
On to `Nc1ccn([C@@H]2O[C@H](CO)[C@@H](O)[C@@H]2O)c(=O)n1` [AraC, 4-amino-1-β-D-arabinofuranosyl-2(1H)-one, reference compound], for which the pIC50 in data set [1] (Homo sapiens, 72 h) is 7.68; in data set [2] (Homo sapiens, 72 h), 6.92.
Consider `Cc1cnc(Cl)n2nc(-c3ccc(C#N)cc3)nc12` [Compound 6m], for which the “cell proliferation inhibitory activity compared with 5-FU, CCRF-HSB-2 cells” value in data set [1] was “stronger cell proliferation inhibitory activity than 5-FU”.
For `Cc1c[nH]c(=O)n2nc(-c3ccc(F)cc3)nc12` [Compound 5h], the pIC50 was 4.26 in data set [1] and 4.20 in data set [2].
Regarding `Cc1c[nH]c(=O)n2nc(-c3ccccc3F)nc12` [Compound 5g], the pIC50 in data set [1] was 4.31; in data set [2], 4.20.
Taken in the same sequence, the figures for `COc1ccc(-c2nc3c(C)c[nH]c(=O)n3n2)cc1` [Compound 5d] were under 4.00 and under 4.00.
Taken in the same sequence, the figures for `Cc1ccc(-c2nc3c(C)c[nH]c(=O)n3n2)cc1` [Compound 5c] were 4.20 and 4.37.
On the same counts, the results for `CCc1nnc2c(C)c[nH]c(=O)n12` [Compound 4a] are 4.11 and 4.09.
On to `N#Cc1ccc(-c2nc3c(F)c[nH]c(=O)n3n2)cc1` [Compound 9g], for which the pIC50 in data set [1] was 4.38; in data set [2] it was 4.36.
For `Cc1c[nH]c(=O)n2nc(-c3ccccc3Br)nc12` [Compound 5k], the pIC50 in data set [1] was 4.13; in data set [2], 4.03.
Taken in the same sequence, the figures for `Cc1c[nH]c(=O)n2c(-c3ccccc3)nnc12` [Compound 4b] were under 4.00 and under 4.00.
For the compound `Cc1cnc(Cl)n2nc(-c3ccc(Cl)c(Cl)c3)nc12` [Compound 6j], the “cell proliferation inhibitory activity compared with 5-FU, CCRF-HSB-2 cells” value in data set [1] is “stronger cell proliferation inhibitory activity than 5-FU”.
Consider `COc1cc(OC)c(-c2nc3c(C)c[nH]c(=O)n3n2)c(OC)c1` [Compound 5e], for which the pIC50 in data set [1] and in data set [2] was under 4.00 in each case.
As for `Cc1c[nH]c(=O)n2nc(-c3ccc(C#N)cc3)nc12` [Compound 5m], the pIC50 was under 4.00 in data set [1] and 4.63 in data set [2].
On the same counts, the results for `Cc1c[nH]c(=O)nc1NN=Cc1ccccc1` [Compound 3b] are under 4.00 and under 4.00.
Taken in the same sequence, the figures for `Cc1c[nH]c(=O)n2nc(-c3ccc4ccccc4c3)nc12` [Compound 5r] were 4.00 and under 4.00.
In the case of `Cc1cnc(Cl)n2nc(-c3ccc([N+](=O)[O-])cc3)nc12` [Compound 6f], in data set [1], the “cell proliferation inhibitory activity compared with 5-FU, CCRF-HSB-2 cells” value was “stronger cell proliferation inhibitory activity than 5-FU”. The “cell proliferation inhibitory activity compared with 5-FU, KB cells” value in data set [2] was “stronger cell proliferation inhibitory activity than 5-FU”.
On to `O=c1[nH]cc(F)c2nc(-c3ccc(Cl)c(Cl)c3)nn12` [Compound 9e], for which the values for the pIC50 in data set [1] and in data set [2] were 4.63 and 4.54, respectively.
Regarding `Cc1c[nH]c(=O)n2nc(-c3ccc([N+](=O)[O-])cc3)nc12` [Compound 5f], in data set [1], the pIC50 was 4.15. In data set [2], the pIC50 is 5.73 and the “cell proliferation inhibitory activity compared with 5-FU, KB cells” value is given as “stronger cell proliferation inhibitory activity than 5-FU”.
Regarding `CCc1nc2c(F)c[nH]c(=O)n2n1` [Compound 9c], the pIC50 was 4.24 in data set [1] and 4.31 in data set [2].
With `Cc1c[nH]c(=O)n2nc(-c3ccncc3)nc12` [Compound 5q], the figures for the pIC50 in data set [1] and in data set [2] were 4.54 and 4.38, respectively.
In the case of `Cc1c[nH]c(=O)n2nc(-c3ccccc3)nc12` [Compound 5b], the pIC50 in data set [1] is 4.31; in data set [2], 4.24.
On the same counts, the results for `Cc1c[nH]c(=O)n2nc(-c3ccc(Cl)cc3)nc12` [Compound 5i] are 4.38 and 4.30.
Taken in the same sequence, the figures for `O=c1[nH]cc(F)c2nc(-c3ccc(Br)cc3)nn12` [Compound 9f] were 4.50 and 4.55.
Turning to `O=c1[nH]cc(F)c2nc(-c3ccccc3)nn12` [Compound 9d], the results for the pIC50 in data set [1] and in data set [2] were 4.65 and 4.41, respectively.
